Measurements from patent US9156829B2, “Cycloalkyl and heterocycloalkyl compounds as orexin receptor antagonists” (Takeda Pharmaceutical Company Limited, priority 2014, dated 2015).

What was measured:
human orexin receptor 1 = human orexin receptor 1 (Homo sapiens (Human), UniProt O43613); assay: Orexin antagonist activity, intracellular calcium FLIPR assay, RBL-2H3 cells expressing human orexin receptor 1; format: cell-based; conditions: RBL-2H3 cells stably expressing human orexin receptor 1; orexin-A at approx. 80% maximal response; compound added 15 minutes before; read-out: Human Orexin1R IC50
Sequence of human orexin receptor 1 (O43613 whole entry): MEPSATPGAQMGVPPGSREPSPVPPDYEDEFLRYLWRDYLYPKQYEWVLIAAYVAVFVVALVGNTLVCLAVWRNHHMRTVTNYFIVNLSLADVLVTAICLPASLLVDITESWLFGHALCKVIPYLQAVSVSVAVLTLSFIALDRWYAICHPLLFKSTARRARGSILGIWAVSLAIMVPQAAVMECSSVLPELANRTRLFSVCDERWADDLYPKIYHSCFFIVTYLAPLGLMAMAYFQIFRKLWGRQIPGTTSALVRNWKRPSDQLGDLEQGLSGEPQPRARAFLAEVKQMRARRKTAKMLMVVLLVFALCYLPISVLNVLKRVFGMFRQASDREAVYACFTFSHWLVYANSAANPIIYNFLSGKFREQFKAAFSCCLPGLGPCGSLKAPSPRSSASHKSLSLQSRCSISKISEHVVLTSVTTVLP

human orexin receptor 2 = human orexin receptor 2 (Homo sapiens (Human), UniProt O43614); assay: Orexin antagonist activity, intracellular calcium FLIPR assay, RBL-2H3 cells expressing human orexin receptor 2; format: cell-based; conditions: RBL-2H3 cells stably expressing human orexin receptor 2; orexin-A at approx. 80% maximal response; compound added 15 minutes before; read-out: Human Orexin2R IC50
Sequence of human orexin receptor 2 (O43614 whole entry): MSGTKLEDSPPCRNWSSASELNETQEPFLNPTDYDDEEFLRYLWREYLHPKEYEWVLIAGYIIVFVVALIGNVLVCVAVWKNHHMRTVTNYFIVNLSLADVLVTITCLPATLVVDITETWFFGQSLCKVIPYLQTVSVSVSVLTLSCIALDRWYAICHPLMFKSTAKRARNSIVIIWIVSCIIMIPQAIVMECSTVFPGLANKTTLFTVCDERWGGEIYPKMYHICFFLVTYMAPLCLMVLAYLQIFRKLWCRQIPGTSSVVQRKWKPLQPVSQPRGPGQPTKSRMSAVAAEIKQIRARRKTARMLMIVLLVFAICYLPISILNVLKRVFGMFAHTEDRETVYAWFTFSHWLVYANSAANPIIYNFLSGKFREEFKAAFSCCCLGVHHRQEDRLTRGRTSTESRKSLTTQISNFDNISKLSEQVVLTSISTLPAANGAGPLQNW

Structure (SMILES)	IC50 (human orexin receptor 1) [nM]	IC50 (human orexin receptor 2) [nM]
O=C(N[C@H]1CCC[C@@H]1Nc1cc(C(F)(F)F)ccn1)c1ccccc1-n1nccn1 [Example 121, 2-(2H-1,2,3-Triazol-2-yl)-N-[(1S,2S)-2-{[4-(trifluoromethyl)pyridin-2-yl]amino}cyclopentyl]benzamide]	822	> 10000
O=C(N[C@H]1CCC[C@@H]1Nc1ncc(C(F)(F)F)cc1Cl)c1ncccc1-n1nccn1 [Example 122, N-[(1S,2S)-2-{[3-Chloro-5-(trifluoromethyl)pyridin-2-yl]amino}cyclopentyl]-3-(2H-1,2,3-triazol-2-yl)pyridine-2-carboxamide]	32	> 10000
O=C(N[C@H]1CCC[C@@H]1Nc1ncc(C(F)(F)F)cc1F)c1ncccc1-n1nccn1 [Example 123, N-[(1S,2S)-2-{[3-Fluoro-5-(trifluoromethyl)pyridin-2-yl]amino}cyclopentyl]-3-(2H-1,2,3-triazol-2-yl)pyridine-2-carboxamide]	18	> 10000
Cc1cc(C(F)(F)F)cnc1N[C@H]1CCC[C@@H]1NC(=O)c1ncccc1-n1nccn1 [Example 124, N-[(1S,2S)-2-{[3-Methyl-5-(trifluoromethyl)pyridin-2-yl]amino}cyclopentyl]-3-(2H-1,2,3-triazol-2-yl)pyridine-2-carboxamide]	21	> 10000
CCc1nc(C(F)(F)F)cnc1N[C@H]1CCC[C@@H]1NC(=O)c1ncccc1-n1nccn1 [Example 125, N-[(1S,2S)-2-{[3-Ethyl-5-(trifluoromethyl)pyrazin-2-yl]amino}cyclopentyl]-3-(2H-1,2,3-triazol-2-yl)pyridine-2-carboxamide]	14	> 10000
O=C(NC1CC(F)(F)CC1Nc1cnc(C(F)(F)F)cn1)c1ccccc1-n1nccn1 (stereo not drawn) [Example 126, N-(4,4-Difluoro-2-{[5-(trifluoromethyl)pyrazin-2-yl]amino}cyclopentyl)-2-(2H-1,2,3-triazol-2-yl)benzamide]	119	> 10000
O=C(N[C@H]1CC(F)(F)C[C@@H]1Nc1ccc(OC(F)(F)F)cn1)c1ccccc1-n1nccn1 [Example 131, N-[(1S,2S)-4,4-Difluoro-2-{[5-(trifluoromethoxy)pyridin-2-yl]amino}cyclopentyl]-2-(2H-1,2,3-triazol-2-yl)benzamide]	39	> 10000
O=C(N[C@H]1CC(F)(F)C[C@@H]1Nc1ncc(C(F)(F)F)cc1F)c1ccccc1-n1nccn1 [Example 132, N-[(1S,2S)-4,4-Difluoro-2-{[3-fluoro-5-(trifluoromethyl)pyridin-2-yl]amino}cyclopentyl]-2-(2H-1,2,3-triazol-2-yl)benzamide]	12	> 10000
CCOc1cnc(-c2ccccc2C(=O)N[C@H]2CCC[C@@H]2Nc2cnc(C(F)(F)F)cn2)nc1 [Example 135, 2-(5-Ethoxypyrimidin-2-yl)-N-[(1S,2S)-2-{[5-(trifluoromethyl)pyrazin-2-yl]amino}cyclopentyl]benzamide]	94	> 10000
COc1cccc(F)c1C(=O)N[C@H]1CCC[C@@H]1Nc1cnc(C(F)(F)F)cn1 [Example 136, 2-Fluoro-6-methoxy-N-[(1S,2S)-2-{[5-(trifluoromethyl)pyrazin-2-yl]amino}cyclopentyl]benzamide]	830	> 10000
Cc1cc(C(F)(F)F)cnc1N[C@H]1CCC[C@@H]1NC(=O)c1ncccc1-c1ncccn1 [Example 137, N-[(1S,2S)-2-{[3-Methyl-5-(trifluoromethyl)pyridin-2-yl]amino}cyclopentyl]-3-(pyrimidin-2-yl)pyridine-2-carboxamide]	34	> 10000
O=C(N[C@H]1CCC[C@@H]1Nc1ncc(C(F)(F)F)cc1F)c1ccccc1-c1ncccn1 [Example 138, N-[(1S,2S)-2-{[3-Fluoro-5-(trifluoromethyl)pyridin-2-yl]amino}cyclopentyl]-2-(pyrimidin-2-yl)benzamide]	30	> 10000
O=C(N[C@H]1CCC[C@@H]1Nc1ncc(C(F)(F)F)cc1F)c1cc(F)ccc1-c1ncccn1 [Example 139, 5-Fluoro-N-[(1S,2S)-2-{[3-fluoro-5-(trifluoromethyl)pyridin-2-yl]amino}cyclopentyl]-2-(pyrimidin-2-yl)benzamide]	32	> 10000
Cc1noc(-c2ccccc2C(=O)N[C@H]2CCC[C@@H]2Nc2ncc(C(F)(F)F)cc2F)n1 [Example 140, N-[(1S,2S)-2-{[3-Fluoro-5-(trifluoromethyl)pyridin-2-yl]amino}cyclopentyl]-2-(3-methyl-1,2,4-oxadiazol-5-yl)benzamide]	35	> 10000
Cc1noc(-c2ccccc2C(=O)N[C@H]2CCC[C@@H]2Nc2ncc(C(F)(F)F)nc2C)n1 [Example 141, 2-(3-Methyl-1,2,4-oxadiazol-5-yl)-N-[(1S,2S)-2-{[3-methyl-5-(trifluoromethyl)pyrazin-2-yl]amino}cyclopentyl]benzamide]	62	> 10000
O=C(N[C@H]1CCC[C@@H]1Nc1ncc(C(F)(F)F)nc1C1CC1)c1ncccc1-n1nccn1 [Example 142, N-[(1S,2S)-2-{[3-Cyclopropyl-5-(trifluoromethyl)pyrazin-2-yl]amino}cyclopentyl]-3-(2H-1,2,3-triazol-2-yl)pyridine-2-carboxamide]	12	8830
O=C(N[C@H]1CCC[C@@H]1Nc1ncc(C(F)(F)F)nc1C1CC1)c1ncccc1-c1ncccn1 [Example 143, N-[(1S,2S)-2-{[3-Cyclopropyl-5-(trifluoromethyl)pyrazin-2-yl]amino}cyclopentyl]-3-(pyrimidin-2-yl)pyridine-2-carboxamide]	49	> 10000
C[C@]1(Nc2cnc(C(F)(F)F)cn2)CCC[C@@H]1NC(=O)c1ncccc1-c1ncccn1 [Example 144, N-[(1S,2S)-2-Methyl-2-{[5-(trifluoromethyl)pyrazin-2-yl]amino}cyclopentyl]-3-(pyrimidin-2-yl)pyridine-2-carboxamide]	13	> 10000
Cc1noc(-c2ccccc2C(=O)N[C@H]2CCC[C@]2(C)Nc2cnc(C(F)(F)F)cn2)n1 [Example 145, 2-(3-Methyl-1,2,4-oxadiazol-5-yl)-N-[(1S,2S)-2-methyl-2-{[5-(trifluoromethyl)pyrazin-2-yl]amino}cyclopentyl]benzamide]	11	> 10000
CC1(Nc2ncc(C(F)(F)F)cc2F)CCCC1NC(=O)c1ncccc1-c1ncccn1 (stereo not drawn) [Example 146, N-(2-{[3-Fluoro-5-(trifluoromethyl)pyridin-2-yl]amino}-2-methylcyclopentyl)-3-(pyrimidin-2-yl)pyridine-2-carboxamide]	7	> 10000
O=C(N[C@H]1CCC[C@@H]1Nc1ncc(C(F)(F)F)cc1F)c1ncccc1-c1ncccn1 [Example 147, N-[(1S,2S)-2-{[3-Fluoro-5-(trifluoromethyl)pyridin-2-yl]amino}cyclopentyl]-3-(pyrimidin-2-yl)pyridine-2-carboxamide]	24	> 10000
O=C(N[C@H]1CCC[C@@H]1Nc1ncc(C(F)(F)F)cc1Cl)c1ncccc1-c1ncccn1 [Example 148, N-[(1S,2S)-2-{[3-Chloro-5-(trifluoromethyl)pyridin-2-yl]amino}cyclopentyl]-3-(pyrimidin-2-yl)pyridine-2-carboxamide]	19	> 10000
CCc1nc(C(F)(F)F)cnc1N[C@H]1CCC[C@@H]1NC(=O)c1ccccc1-c1nc(C)no1 [Example 149, N-[(1S,2S)-2-{[3-Ethyl-5-(trifluoromethyl)pyrazin-2-yl]amino}cyclopentyl]-2-(3-methyl-1,2,4-oxadiazol-5-yl)benzamide]	25	> 10000
CCc1nc(C(F)(F)F)cnc1N[C@H]1CCC[C@@H]1NC(=O)c1ncccc1-c1ncccn1 [Example 150, N-[(1S,2S)-2-{[3-Ethyl-5-(trifluoromethyl)pyrazin-2-yl]amino}cyclopentyl]-3-(pyrimidin-2-yl)pyridine-2-carboxamide]	43	> 10000
CCc1nc(C(F)(F)F)cnc1N[C@H]1CCC[C@@H]1NC(=O)c1ccccc1-c1ncccn1 [Example 151, N-[(1S,2S)-2-{[3-Ethyl-5-(trifluoromethyl)pyrazin-2-yl]amino}cyclopentyl]-2-(pyrimidin-2-yl)benzamide]	29	> 10000
CC1(Nc2ncc(C(F)(F)F)cn2)CCCC1NC(=O)c1ncccc1-c1ncccn1 (stereo not drawn) [Example 153, N-(2-Methyl-2-{[5-(trifluoromethyl)pyrimidin-2-yl]amino}cyclopentyl)-3-(pyrimidin-2-yl)pyridine-2-carboxamide]	66	> 10000
CC1(Nc2ncc(C(F)(F)F)cn2)CCCC1NC(=O)c1ncccc1-n1nccn1 (stereo not drawn) [Example 154, N-(2-Methyl-2-{[5-(trifluoromethyl)pyrimidin-2-yl]amino}cyclopentyl)-3-(2H-1,2,3-triazol-2-yl)pyridine-2-carboxamide]	42	> 10000
CC1(Nc2ccc(C(F)(F)F)cn2)CCCC1NC(=O)c1ncccc1-n1nccn1 (stereo not drawn) [Example 155, N-(2-Methyl-2-{[5-(trifluoromethyl)pyridin-2-yl]amino}cyclopentyl)-3-(2H-1,2,3-triazol-2-yl)pyridine-2-carboxamide]	8	> 10000
CC1(Nc2ccc(C(F)(F)F)cn2)CCCC1NC(=O)c1ncccc1-c1ncccn1 (stereo not drawn) [Example 156, N-(2-Methyl-2-{[5-(trifluoromethyl)pyridin-2-yl]amino}cyclopentyl)-3-(pyrimidin-2-yl)pyridine-2-carboxamide]	11	> 10000
O=C(N[C@H]1CC(F)(F)C[C@@H]1Nc1ccc(OC(F)F)cn1)c1ccccc1-n1nccn1 [Example 157, N-[(1S,2S)-2-{[5-(Difluoromethoxy)pyridin-2-yl]amino}-4,4-difluorocyclopentyl]-2-(2H-1,2,3-triazol-2-yl)benzamide]	236	> 10000
